{"source": "patent US12024512B2", "about": "“Cocrystal” (TAKEDA PHARMACEUTICAL COMPANY LIMITED, priority 2016, dated 2024)", "key": {"[1]": {"assay": "Slurry experiment: crystal form of residue after stirring in test solvent", "type": "physicochemical", "details": "about 25° C., 24 hr", "description": "(§1) Powder X-ray diffraction measurement was performed using Cu-Kα radiation and measured by horizontal multipurpose X-ray diffraction system Ultima IV manufactured by Rigaku Corporation. Differential scanning calorimetric or thermogravimetric measurement was performed using DSC1/700/903-2 manufactured by Mettler Toledo or TGA/DSC1/LF/629-2 manufactured by Mettler Toledo and measured at temperature rise rate 5° C./min. Infrared spectrum was measured using Fourier transform infrared spectrophotometer Shimadzu IR Prestige-21 manufactured by Shimadzu Corporation and mounting Dura Sample IR II manufactured by Smiths Detection and by a total reflection method absorption measurement method at resolution 4 cm^−1. Raman spectroscopy was measured using RXN2 manufactured by Kaiser Optical Systems and a laser light source at excitation wavelength 1064 nm. Single crystal X-ray diffraction was measured using Cu-Kα radiation and curved imaging plate single crystal automatic X-ray structure analyzer R-AXIS RAPID II manufactured by Rigaku Corporation. Initial phase was determined by the direct method and the structure was refined by SHELXL-97. […] Intrinsic dissolution rate measurement was evaluated using a compression-molded disc of a crystal powder alone and in 20 mmoL/L sodium phosphate buffer (pH 6.8) containing 0.2% (w/v) sodium lauryl sulfate and by a rotating disc method (rotating speed: 100 rpm). Dissolution test was performed using a powder obtained by physically mixing a crystal powder and lactose in the same weight as the crystal powder and evaluated in Fasted State Simulated Intestinal Fluid (FaSSIF) at 37° C. by a rotating paddle method (paddle rotating speed: 50 rpm). The drug concentration of a solution was determined by liquid chromatography using Alliance HPLC system e2695 and detector 2789 manufactured by Waters (separation column: YMCPackPro C18 4.6 mm[…]×150 mm, temperature: 40° C., mobile phase: 20 mmol/L sodium phosphate buffer (pH 6.8)/acetonitrile=60/40 (v/v), flow rate: 1 mL/min, ultraviolet absorption detection wavelength: 240 nm). As slurry experiment, a test solvent was added to a crystal powder, the mixture was stirred at about 25° C. for 24 hr in suspension, the obtained residue was collected by filtration, and the crystal form was confirmed by powder X-ray diffraction measurement or Raman spectroscopy. In the recrystallization experiment, crystals were dissolved in ethanol, acetone, 2-propanol, tetrahydrofuran, methyl ethyl ketone, ethyl acetate, isopropyl acetate, anisole or isobutyl acetate at 55° C., filtered through a filter, allowed to cool to 5° C. or allowed to cool to 5° C. after adding n-heptane to the solution, and the crystal form of the obtained precipitate was confirmed by powder X-ray diffraction measurement or Raman spectroscopy."}, "[2]": {"assay": "Recrystallization experiment: crystal form of precipitate from organic solvent", "type": "physicochemical", "details": "dissolved at 55° C., cooled to 5° C.", "description": "as §1"}}}
{"compound": "CCc1cc2c(c(OCC(F)(F)F)c(C(=O)NC3CCN(C(=O)CO)CC3)n2C)c(=O)n1CC(=O)c1ccccc1.O=C(O)C[C@H](O)C(=O)O", "note": "[cocrystal with L-malic acid, cocrystal of 6-ethyl-N-[1-(hydroxyacetyl)piperidin-4-yl]-1-methyl-4-oxo-5-(2-oxo-2-phenylethyl)-3-(2,2,2-trifluoroethoxy)-4,5-dihydro-1H-pyrrolo[3,2-c]pyridine-2-carboxamide and L-malic acid]", "values": [{"measurement": "Crystal form of residue after slurry experiment", "setting": "[1]; 2-propanol", "value": "cocrystal *"}, {"measurement": "Crystal form of residue after slurry experiment", "setting": "[1]; acetone", "value": "cocrystal *"}, {"measurement": "Crystal form of residue after slurry experiment", "setting": "[1]; anisole", "value": "free form (solvate)"}, {"measurement": "Crystal form of residue after slurry experiment", "setting": "[1]; distilled water", "value": "cocrystal* + free form (solvate)"}, {"measurement": "Crystal form of residue after slurry experiment", "setting": "[1]; ethanol", "value": "cocrystal *"}, {"measurement": "Crystal form of residue after slurry experiment", "setting": "[1]; ethyl acetate", "value": "cocrystal* + free form (solvate)"}, {"measurement": "Crystal form of residue after slurry experiment", "setting": "[1]; methyl ethyl ketone", "value": "cocrystal* + free form (solvate)"}, {"measurement": "Crystal form of residue after slurry experiment", "setting": "[1]; tetrahydrofuran", "value": "free form (solvate)"}, {"measurement": "Crystal form of precipitate obtained by recrystallization experiment", "setting": "[2]; 2-propanol", "value": "no precipitate"}, {"measurement": "Crystal form of precipitate obtained by recrystallization experiment", "setting": "[2]; 2-propanol/n-heptane, n-heptane added", "value": "cocrystal *"}, {"measurement": "Crystal form of precipitate obtained by recrystallization experiment", "setting": "[2]; acetone", "value": "free form (solvate)"}, {"measurement": "Crystal form of precipitate obtained by recrystallization experiment", "setting": "[2]; acetone/n-heptane, n-heptane added", "value": "free form (solvate)"}, {"measurement": "Crystal form of precipitate obtained by recrystallization experiment", "setting": "[2]; anisole", "value": "no precipitate"}, {"measurement": "Crystal form of precipitate obtained by recrystallization experiment", "setting": "[2]; anisole/n-heptane, n-heptane added", "value": "free form (solvate)"}, {"measurement": "Crystal form of precipitate obtained by recrystallization experiment", "setting": "[2]; ethanol", "value": "free form (solvate)"}, {"measurement": "Crystal form of precipitate obtained by recrystallization experiment", "setting": "[2]; ethanol/n-heptane, n-heptane added", "value": "free form (solvate)"}, {"measurement": "Crystal form of precipitate obtained by recrystallization experiment", "setting": "[2]; ethyl acetate", "value": "free form (solvate)"}, {"measurement": "Crystal form of precipitate obtained by recrystallization experiment", "setting": "[2]; ethyl acetate/n-heptane, n-heptane added", "value": "free form (solvate)"}, {"measurement": "Crystal form of precipitate obtained by recrystallization experiment", "setting": "[2]; isobutyl acetate", "value": "cocrystal * + free form (solvate)"}, {"measurement": "Crystal form of precipitate obtained by recrystallization experiment", "setting": "[2]; isobutyl acetate/n-heptane, n-heptane added", "value": "free form (solvate)"}, {"measurement": "Crystal form of precipitate obtained by recrystallization experiment", "setting": "[2]; isopropyl acetate", "value": "free form (solvate)"}, {"measurement": "Crystal form of precipitate obtained by recrystallization experiment", "setting": "[2]; isopropyl acetate/n-heptane, n-heptane added", "value": "cocrystal * + free form (solvate)"}, {"measurement": "Crystal form of precipitate obtained by recrystallization experiment", "setting": "[2]; methyl ethyl ketone", "value": "free form (solvate)"}, {"measurement": "Crystal form of precipitate obtained by recrystallization experiment", "setting": "[2]; methyl ethyl ketone/n-heptane, n-heptane added", "value": "cocrystal + free form (solvate)"}, {"measurement": "Crystal form of precipitate obtained by recrystallization experiment", "setting": "[2]; tetrahydrofuran", "value": "free form (solvate)"}, {"measurement": "Crystal form of precipitate obtained by recrystallization experiment", "setting": "[2]; tetrahydrofuran/n-heptane, n-heptane added", "value": "cocrystal + free form (solvate)"}]}
